We go through one compound from PMC3400326 (Pharmacogenomics and personalized medicine, 2011).

One test concerns the target SULT1A1 (Homo sapiens, UniProt P50225). In words: intrinsic fluorescence titration. It counts as binding.
In the next test the target is T1, SULT1E1 (Homo sapiens, UniProt P49888).
T1 sequence (P49888 1-294): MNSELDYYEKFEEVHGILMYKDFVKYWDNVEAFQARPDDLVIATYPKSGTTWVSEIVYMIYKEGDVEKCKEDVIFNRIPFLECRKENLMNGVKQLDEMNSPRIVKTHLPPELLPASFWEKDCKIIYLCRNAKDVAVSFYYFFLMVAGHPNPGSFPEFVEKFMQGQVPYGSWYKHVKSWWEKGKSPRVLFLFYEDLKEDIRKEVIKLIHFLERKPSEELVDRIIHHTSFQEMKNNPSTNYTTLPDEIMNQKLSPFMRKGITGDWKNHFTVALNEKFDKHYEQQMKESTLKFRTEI
Put plainly: intrinsic fluorescence titration. It counts as binding.

SULT1A1, sequence (P50225 whole entry): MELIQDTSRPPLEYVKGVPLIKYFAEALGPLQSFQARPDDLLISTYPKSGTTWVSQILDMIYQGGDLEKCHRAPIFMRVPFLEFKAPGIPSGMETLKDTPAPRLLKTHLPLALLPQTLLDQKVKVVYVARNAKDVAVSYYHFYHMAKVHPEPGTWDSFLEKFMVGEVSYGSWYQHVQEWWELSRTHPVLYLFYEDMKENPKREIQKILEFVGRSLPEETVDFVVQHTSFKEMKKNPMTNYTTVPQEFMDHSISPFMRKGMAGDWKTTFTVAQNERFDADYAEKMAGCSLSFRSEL

One may read the Kd as the free concentration of one partner at which half of the binding sites on the other are occupied at equilibrium, for simple one-to-one binding. Read a high Kd as weaker binding. Turning to `C[C@]12CC[C@@H]3c4ccc(O)cc4C[C@@H](CCCCCCCCC[S+]([O-])CCCC(F)(F)C(F)(F)F)[C@H]3[C@@H]1CC[C@@H]2O` (some centres unmarked) [fulvestrant], the values for the Kd on SULT1A1 and at SULT1E1 were 2300 ± 400 nM and 200 ± 20 nM, respectively.
